Measured values reported in patent publication US20190002555A1, “ANTIGEN-BINDING PROTEINS TO MARINOBUFAGENIN” (REGENERON PHARMACEUTICALS, INC., priority 2015, published 2019).
Where “and” joins values, the source holds several entries; their conditions need not be identical. Equal entries are not always repeated. Where two headings read alike, the source gives them in different places.

Target: T1, Na+/K+ ATPase (Homo sapiens, UniProt P05023)
T1 construct: An in-vitro cell-based assay was developed to assess the regulation of Na+/K+ ATPase by MBG using HEK293 cells; host or cells: HEK293/hnAChR α3/β4 cells
Experiment: Membrane potential assay: MBG inhibition of membrane repolarization
Type: cell-based
Description: An in-vitro cell-based assay was developed to assess the regulation of Na+/K+ ATPase by MBG using HEK293 cells. HEK293 has Na+/K+ ATPase activity and contains the α1 isoform (Kochskämper et al. 1997, Biochim. Biophys. Acta 1325: 197-208). […] HEK293 cells expressing human neuronal nicotinic acetylcholine receptors (nAChR) subunits α3 and β4 (Accession # M37981 and #NM_000750), HEK293/hnAChR α3/β4 (Millipore) were used. The nAchR heterodimer is a ligand-gated ion channel that mediates influx of Na+ upon ligand binding (Corringer et al. 2000, Annu. Rev. Pharmacol. Toxicol. 40: 431-458). […] MBG was added to inhibit the repolarization of the cell through its effects on Na^+/K^+ ATPase. Changes in the membrane potential of the cells were monitored using a fluorescent dye whose intensity increases when the cells are depolarized and decreases as the cells are repolarized.
For the bioassay, cells were detached with Enzyme Free Cell Dissociation Buffer (Millipore) seeded into 96-well assay plates at 50,000 cells/well in Opti-MEM™ assay buffer supplemented with 0.1% FBS, penicillin/streptomycin and L-glutamine (known from this point forward as Opti-MEM™), and then incubated at 37° C. in 5% CO2 overnight. […] The plate was then placed into the FLIPR^Tetra® (Molecular Devices) and kinetic readings were collected at 25° C. […]

What does the source list for `C[C@]12CC[C@H](O)C[C@@]1(O)CC[C@@H]1[C@@H]2CC[C@]2(C)[C@@H](c3ccc(=O)oc3)CC3O[C@@]312` (stereo partly drawn) [MBG, 3β, 5β-dihydroxy-14,15-epoxybufadienolide]?
IC50 (IC50 [M] of MBG (@ 100 nM Epibatidine)): 6.6e-07 M and 4.5e-07 M; IC50 (read-out: IC50 of MBG): 7e-07 M and 4.46e-07 M and 6.62e-07 M
